# Assay results reported in patent US8648066B2 (Exelixis, Inc., priority 2009, dated 2014).
# Molecular target: mTOR/GbL/Raptor (mTORC1) (Homo sapiens, UniProt P42345)
# Experiment: mTOR/GbL/Raptor (mTORC1) ELISA assay
# Type: biochemical
# Conditions: phosphorylation of 4E-BP1; 0.2 nM mTORC1, 10 μM ATP; read-out: IC50 in this assay (mTORC1 ELISA)
# Procedure, shortened: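 Human mTORC1 (0.2 nM) phosphorylated 50 nM His-tagged 4E-BP1 with 10 µM ATP in HEPES pH 7.2 containing 10 mM MnCl2, 120 min at ambient temperature. Substrate was captured on Ni-chelate plates; phospho-4E-BP1 was detected by primary antibody and HRP secondary with luminescence.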
row,Compound,IC50 [nM]
1,"COCCNS(=O)(=O)c1cc(-c2ccc3c(c2)CN(c2ncnc4c2CC(C)(C)CC4)CCO3)cnc1N [Example 392, 2-amino-5-[4-(6,6-dimethyl-5,6,7,8-tetrahydroquinazolin-4-yl)-2,3,4,5-tetrahydro-1,4-benzoxazepin-7-yl]-N-[2-(methyloxy)ethyl]pyridine-3-sulfonamide]",50 to 250
2,"CN1CCC[C@H](CNS(=O)(=O)c2cc(-c3ccc4c(c3)CN(c3ncnc5c3CC(C)(C)CC5)CCO4)cnc2N)C1 [Example 393, 2-amino-5-[4-(6,6-dimethyl-5,6,7,8-tetrahydroquinazolin-4-yl)-2,3,4,5-tetrahydro-1,4-benzoxazepin-7-yl]-N-{[(3S)-1-methylpiperidin-3-yl]methyl}pyridine-3-sulfonamide]",50 to 250
3,"CN1CC[C@H](CNS(=O)(=O)c2cc(-c3ccc4c(c3)CN(c3ncnc5c3CC(C)(C)CC5)CCO4)cnc2N)C1 [Example 394, 2-amino-5-[4-(6,6-dimethyl-5,6,7,8-tetrahydroquinazolin-4-yl)-2,3,4,5-tetrahydro-1,4-benzoxazepin-7-yl]-N-{[(3S)-1-methylpyrrolidin-3-yl]methyl}pyridine-3-sulfonamide]",50 to 250
4,"CCN(C)S(=O)(=O)c1cc(-c2ccc3c(c2)CN(c2ncnc4c2CC(C)(C)CC4)CCO3)cnc1N [Example 395, 2-amino-5-[4-(6,6-dimethyl-5,6,7,8-tetrahydroquinazolin-4-yl)-2,3,4,5-tetrahydro-1,4-benzoxazepin-7-yl]-N-ethyl-N-methylpyridine-3-sulfonamide]",50 to 250
5,"CCNS(=O)(=O)c1cc(-c2ccc3c(c2)CN(c2ncnc4c2CC(C)(C)CC4)CCO3)cnc1N [Example 396, 2-amino-5-[4-(6,6-dimethyl-5,6,7,8-tetrahydroquinazolin-4-yl)-2,3,4,5-tetrahydro-1,4-benzoxazepin-7-yl]-N-ethylpyridine-3-sulfonamide]",10 to 50
6,"CNS(=O)(=O)c1cc(-c2ccc3c(c2)CN(c2ncnc4c2CC(C)(C)CC4)CCO3)cnc1N [Example 397, 2-amino-5-[4-(6,6-dimethyl-5,6,7,8-tetrahydroquinazolin-4-yl)-2,3,4,5-tetrahydro-1,4-benzoxazepin-7-yl]-N-methylpyridine-3-sulfonamide]",≤ 10
7,CC1(C)CCc2ncnc(N3CCOc4ccc(-c5cnc(N)c(S(=O)(=O)NC6CCNCC6)c5)cc4C3)c2C1 [Example 398],50 to 250
8,"CC1(C)CCc2ncnc(N3CCOc4ccc(-c5cnc(N)c(S(N)(=O)=O)c5)cc4C3)c2C1 [Example 399, 2-amino-5-[4-(6,6-dimethyl-5,6,7,8-tetrahydroquinazolin-4-yl)-2,3,4,5-tetrahydro-1,4-benzoxazepin-7-yl]pyridine-3-sulfonamide]",≤ 10
9,"CC1(C)CCc2ncnc(N3CCOc4ccc(-c5cnc(N)c(S(=O)(=O)O)c5)cc4C3)c2C1 [Example 400, 2-amino-5-[4-(6,6-dimethyl-5,6,7,8-tetrahydrquinazolin-4-yl)-2,3,4,5-tetrahydro-1,4-benzoxazepin-7-yl]pyridine-3-sulfonic acid]",50 to 250
10,"CNS(=O)(=O)c1cc(-c2ccc3c(c2)CN(c2ncnc4c2CC(C)(C)C=C4)CCO3)cnc1N [Example 401, 2-amino-5-[4-(6,6-dimethyl-5,6-dihydroquinazolin-4-yl)-2,3,4,5-tetrahydro-1,4-benzoxazepin-7-yl]-N-methylpyridine-3-sulfonamide]",≤ 10
11,"CC1(C)CCc2ncnc(N3CCOc4ccc(-c5cnc(N)c(S(=O)(=O)NCC(O)CO)c5)cc4C3)c2C1 (centres unmarked) [Example 402, 2-amino-N-(2,3-dihydroxypropyl)-5-[4-(6,6-dimethyl-5,6,7,8-tetrahydroquinazolin-4-yl)-2,3,4,5-tetrahydro-1,4-benzoxazepin-7-yl]pyridine-3-sulfonamide]",≤ 10
12,"CC1(C)CCc2ncnc(N3CCOc4ccc(-c5cnc(N)c(S(=O)(=O)NC(C)(C)CN)c5)cc4C3)c2C1 [Example 403, 2-amino-N-(2-amino-1,1-dimethylethyl)-5-[4-(6,6-dimethyl-5,6,7,8-tetrahydroquinazolin-4-yl)-2,3,4,5-tetrahydro-1,4-benzoxazepin-7-yl]pyridine-3-sulfonamide]",10 to 50
13,"CC1=Cc2ncnc(N3CCOc4ccc(-c5cnc(N)c(S(=O)(=O)NCC(C)(C)N)c5)cc4C3)c2CC1(C)C [Example 405, 2-amino-N-(2-amino-2-methylpropyl)-5-[4-(6,6,7-trimethyl-5,6-dihydroquinazolin-4-yl)-2,3,4,5-tetrahydro-1,4-benzoxazepin-7-yl]pyridine-3-sulfonamide]",≤ 10
14,"CC(C)(N)CNS(=O)(=O)c1cc(-c2ccc3c(c2)CN(c2ncnc4c2CC(C)(C)CC4)CCO3)cnc1N [Example 406, 2-amino-N-(2-amino-2-methylpropyl)-5-[4-(6,6-dimethyl-5,6,7,8-tetrahydroquinazolin-4-yl)-2,3,4,5-tetrahydro-1,4-benzoxazepin-7-yl]pyridine-3-sulfonamide]",≤ 10
15,"CC[C@H]1CCc2c(ncnc2N2CCOc3ccc(-c4cnc(N)c(S(=O)(=O)NCC(C)(C)N)c4)cc3C2)C1 [Example 407, 2-amino-N-(2-amino-2-methylpropyl)-5-{4-[(7S)-7-ethyl-5,6,7,8-tetrahydroquinazolin-4-yl]-2,3,4,5-tetrahydro-1,4-benzoxazepin-7-yl]pyridine-3-sulfonamide]",10 to 50
16,"CCC(N)CNS(=O)(=O)c1cc(-c2ccc3c(c2)CN(c2ncnc4c2CC(C)(C)CC4)CCO3)cnc1N (centres unmarked) [Example 408, 2-amino-N-(2-aminobutyl)-5-[4-(6,6-dimethyl-5,6,7,8-tetrahydroquinazolin-4-yl)-2,3,4,5-tetrahydro-1,4-benzoxazepin-7-yl]pyridine-3-sulfonamide]",10 to 50
17,"CC1(C)CCc2ncnc(N3CCOc4ccc(-c5cnc(N)c(S(=O)(=O)NCCN)c5)cc4C3)c2C1 [Example 409, 2-amino-N-(2-aminoethyl)-5-[4-(6,6-dimethyl-5,6,7,8-tetrahydroquinazolin-4-yl)-2,3,4,5-tetrahydro-1,4-benzoxazepin-7-yl]pyridine-3-sulfonamide]",≤ 10
18,"CC(N)CNS(=O)(=O)c1cc(-c2ccc3c(c2)CN(c2ncnc4c2CC(C)(C)CC4)CCO3)cnc1N (centres unmarked) [Example 410, 2-amino-N-(2-aminopropyl)-5-[4-(6,6-dimethyl-5,6,7,8-tetrahydroquinazolin-4-yl)-2,3,4,5-tetrahydro-1,4-benzoxazepin-7-yl]pyridine-3-sulfonamide]",50 to 250
19,"CC(C)(CN)CNS(=O)(=O)c1cc(-c2ccc3c(c2)CN(c2ncnc4c2CC(C)(C)CC4)CCO3)cnc1N [Example 411, 2-amino-N-(3-amino-2,2-dimethylpropyl)-5-[4-(6,6-dimethyl-5,6,7,8-tetrahydroquinazol-4-yl)-2,3,4,5-tetrahydro-1,4-benzoxazepin-7-yl]pyridine-3-sulfonamide]",10 to 50
20,"CC1(C)CCc2ncnc(N3CCOc4ccc(-c5cnc(N)c(S(=O)(=O)NCC(O)CN)c5)cc4C3)c2C1 (centres unmarked) [Example 412, 2-amino-N-(3-amino-2-hydroxypropyl)-5-[4-(6,6-dimethyl-5,6,7,8-tetrahydroquinazolin-4-yl)-2,3,4,5-tetrahydro-1,4-benzoxazepin-7-yl]pyridine-3-sulfonamide]",10 to 50
